Assay results: the NIST ThermoML archive (doi:10.1016/j.fluid.2011.07.005)
Numbers after ± are expanded uncertainties.

Key:
[1] = 298.15 K; 101.33 kPa; Liquid; Vibrating tube method
[2] = refractive index (Na D-line) (dimensionless); conditions: 298.15 K; 101.33 kPa; Liquid; Standard Abbe refractometry
[3] = refractive index (Na D-line) (dimensionless); xn = mol fraction of the nth substance listed; conditions: 298.15 K, 101.3 kPa, Liquid, Standard Abbe refractometry
[4] = xn = mol fraction of the nth substance listed; conditions: 298.15 K, 101.3 kPa, Liquid, Vibrating tube method

CC(CC(C)(C)C)CP(=O)([O-])CC(C)CC(C)(C)C.CCCCCCCCCCCCCC[P+](CCCCCC)(CCCCCC)CCCCCC
Conditions | mass density [kg/m3] | refractive index
[1] | 886.43 ± 0.24 | –
[2] | – | 1.47125 ± 0.00039

CCCCCCCCCCCCCC[P+](CCCCCC)(CCCCCC)CCCCCC.[Cl-] [trihexyl(tetradecyl)phosphonium chloride]
Conditions | mass density [kg/m3] | refractive index
[1] | 891.82 ± 0.24 | –
[2] | – | 1.48175 ± 0.00039

CCCCCCCCCCCCCC[P+](CCCCCC)(CCCCCC)CCCCCC.[Cl-] [trihexyl(tetradecyl)phosphonium chloride] + CC(C)OC(C)C
Conditions | mass density, [4] [kg/m3] | refractive index, [3]
x2 = 0.0515 | 889.99 ± 0.23 | 1.4808 ± 0.0004
x2 = 0.0994 | 888.06 ± 0.22 | 1.4794 ± 0.0004
x2 = 0.2017 | 883.38 ± 0.21 | 1.4763 ± 0.0004
x2 = 0.2989 | 878.11 ± 0.2 | 1.4726 ± 0.0004
x2 = 0.4018 | 871.47 ± 0.19 | 1.4678 ± 0.0004
x2 = 0.4997 | 863.46 ± 0.19 | 1.4641 ± 0.0004
x2 = 0.5994 | 852.63 ± 0.18 | 1.4553 ± 0.0004
x2 = 0.7017 | 836.78 ± 0.18 | 1.4478 ± 0.0004
x2 = 0.8004 | 814.03 ± 0.18 | 1.4384 ± 0.0004
x2 = 0.8993 | 778.62 ± 0.19 | 1.4076 ± 0.0004
x2 = 0.9491 | 752.99 ± 0.21 | 1.3881 ± 0.0004

CCCCCCCCCCCCCC[P+](CCCCCC)(CCCCCC)CCCCCC.[Cl-] [trihexyl(tetradecyl)phosphonium chloride] + CCO
Conditions | mass density, [4] [kg/m3] | refractive index, [3]
x2 = 0.0616 | 891.17 ± 0.23 | 1.4814 ± 0.0004
x2 = 0.1053 | 890.69 ± 0.22 | 1.4807 ± 0.0004
x2 = 0.2113 | 889.27 ± 0.21 | 1.4789 ± 0.0004
x2 = 0.3038 | 887.74 ± 0.2 | 1.4764 ± 0.0004
x2 = 0.4034 | 885.65 ± 0.19 | 1.4742 ± 0.0004
x2 = 0.499 | 882.9 ± 0.18 | 1.4709 ± 0.0004
x2 = 0.6004 | 878.9 ± 0.18 | 1.466 ± 0.0004
x2 = 0.7038 | 872.77 ± 0.17 | 1.4585 ± 0.0004
x2 = 0.7993 | 863.65 ± 0.17 | 1.4473 ± 0.0004
x2 = 0.8999 | 845.08 ± 0.17 | 1.425 ± 0.0004
x2 = 0.9497 | 826.4 ± 0.19 | 1.4058 ± 0.0004
x2 = 0.9808 | 805.94 ± 0.21 | 1.3801 ± 0.0004
